Measurements from patent US20250170112A1, “ADENOSINE LIGANDS FOR THE TREATMENT OF NEUROLOGICAL DISORDERS” (Lucy Therapeutics, Inc., priority 2022, published 2025).

Legend:
[1] = molecular target: T1, human Adenosine A1 receptor (Homo sapiens, UniProt P30542); experiment: GTPγS scintillation proximity assay, agonist testing; format: biochemical; details: agonist activity; membrane extracts of CHO-K1 cells expressing recombinant human A1; read-out: A1AR EC50
T1 construct: host or cells: CHO-K1
T1 sequence (P30542 1-326): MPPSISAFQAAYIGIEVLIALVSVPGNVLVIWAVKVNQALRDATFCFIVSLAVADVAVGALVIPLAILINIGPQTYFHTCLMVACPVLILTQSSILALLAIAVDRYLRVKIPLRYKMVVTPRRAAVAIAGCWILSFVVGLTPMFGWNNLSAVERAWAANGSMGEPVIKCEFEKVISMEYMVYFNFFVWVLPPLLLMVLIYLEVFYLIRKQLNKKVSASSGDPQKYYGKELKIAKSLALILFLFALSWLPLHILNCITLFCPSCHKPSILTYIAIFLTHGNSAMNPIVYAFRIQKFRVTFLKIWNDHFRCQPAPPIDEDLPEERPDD
Method: (§1) SPA ^35S-GTPγS experiments were conducted with Epics Therapeutics membrane preparations. cAMP HTRF assays were conducted with recombinant cell lines.
• Assay buffer: 20 mM HEPES pH 7.4; 100 mM NaCl, 10 μg/mL saponin, MgCl2 at optimized concentration for the specific receptor. • Membranes: membrane extracts prepared from CHO-K1 cells expressing recombinant human Adenosine A1 receptor, thawed on ice, diluted in assay buffer and kept on ice. • GDP: diluted in assay buffer at the optimized concentration for the specific receptor Beads: PVT-WGA (Perkin Elmer, RPNQ001), diluted in assay buffer at 50 mg/mL (0.5 mg/10 μL) • GTPγ^35S: (Perkin Elmer, NEG030X), diluted in assay buffer for a final 0.1 nM assay concentration
Protocol for agonist testing: membranes are mixed with GDP (volume:volume). In parallel, GTPγ[^35S] is mixed with the beads (volume:volume) just before starting the reaction. The following reagents are successively added in the wells of an Optiplate (Perkin Elmer): 50 μL of test or reference ligand, 25 μL of the membranes:GDP mix, and 25 μL of the GTPγ[^35S]:beads mix. The plates are covered with a top seal, mixed on an orbital shaker for 2 min, and then incubated for 1 hour at room temperature. Then the plates are centrifuged for 10 min at 2000 rpm, incubated at room temperature and counted for 30 sec/well with a PerkinElmer TopCount™ reader. • Conditions for the GTPγS scintillation proximity assay are shown in Table 14.

human A2B = molecular target: T2, human A2B (Homo sapiens, UniProt P29275); experiment: cAMP HTRF assay for Gs coupled receptor, agonist test; format: cell-based; details: agonist activity; HEK293 cells expressing recombinant human A2B; read-out: A2BAR EC50
T2 construct: expressed in transfected cells; host or cells: HEK293
T2 sequence (P29275 1-332): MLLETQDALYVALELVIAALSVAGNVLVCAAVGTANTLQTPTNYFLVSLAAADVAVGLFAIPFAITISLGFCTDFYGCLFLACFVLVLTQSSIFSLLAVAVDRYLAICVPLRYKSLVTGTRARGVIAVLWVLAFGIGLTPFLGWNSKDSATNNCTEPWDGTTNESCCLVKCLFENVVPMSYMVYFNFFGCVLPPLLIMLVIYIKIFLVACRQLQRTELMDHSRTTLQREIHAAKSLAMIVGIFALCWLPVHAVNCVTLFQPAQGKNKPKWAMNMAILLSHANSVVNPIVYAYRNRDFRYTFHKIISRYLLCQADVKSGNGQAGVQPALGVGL
Method: as §1
Dose response curves are performed in parallel with the reference compounds.
For agonist test (96 well): 12 μL of cells are mixed with 12 μL of the test compound at increasing concentrations and then incubated 30 min at room temperature. After addition of the lysis buffer containing cAMP-d2 and anti-cAMP cryptate detection reagents, plates are incubated 1 hour incubation at room temperature, and fluorescence ratios are measured according to the manufacturer specification, with the HTRF kit.

Row | EC50 [1] | EC50 (human A2B) | Structure (SMILES)
1 | > 10000 nM | 5850 nM | N#Cc1cnc(SCC2CCCO2)c(C#N)c1-c1ccc(OCCO)cc1 (stereo not shown) [Compound 1]
2 | > 10000 nM | 0.28 nM | N#Cc1c(N)nc(SCc2cncc3[nH]ccc23)c(C#N)c1-c1ccc(OCCO)cc1 [Compound 2]
3 | > 10000 nM | 2410 nM | COCCOc1ccc(-c2c(C#N)c(N)nc(SCc3ccnc4[nH]ccc34)c2C#N)cc1 [Compound 4]
4 | > 10000 nM | 13.4 nM | N#Cc1c(N)nc(SCc2cccc3[nH]cnc23)c(C#N)c1-c1ccc(OCCO)cc1 [Compound 5]
5 | 586 nM | 213 nM | N#Cc1c(SCc2cnccn2)nc(N2CCC2)c(C#N)c1-c1ccc(OCCO)cc1 [Compound 6]
6 | > 10000 nM | 150 nM | N#Cc1c(N)nc(SCc2cccc3occc23)c(C#N)c1-c1ccc(OCCO)cc1 [Compound 7]
7 | 37.1 nM | 37.7 nM | N#Cc1c(N)nc(SCc2cccc3[nH]ccc23)c(C#N)c1-c1ccc(OCCO)cc1 [Compound 8]
8 | 884 nM | 2490 nM | N#Cc1c(N)nc(SCC2CCCOC2)c(C#N)c1-c1ccc(OC2COC2)cc1 (stereo not shown) [Compound 9]
9 | > 10000 nM | 3760 nM | N#Cc1c(N)nc(SCCC2CCO2)c(C#N)c1-c1ccc(OCCO)cc1 (stereo not shown) [Compound 10]
10 | 483 nM | > 10000 nM | COCCOc1ccc(-c2c(C#N)c(SCc3cccnn3)nc(N3CCC3)c2C#N)cc1 [Compound 12]
11 | > 10000 nM | 272 nM | N#Cc1c(N)nc(SCC2CCCOC2)c(C#N)c1-c1ccc(OCCO)cc1 (stereo not shown) [Compound 13]
12 | 29.2 nM | 81.7 nM | N#Cc1c(N)nc(SCc2ccnc3[nH]ccc23)c(C#N)c1-c1ccc(OCCO)cc1 [Compound 14]
13 | 1050 nM | 142 nM | N#Cc1c(N)nc(SCc2cccc3[nH]ncc23)c(C#N)c1-c1ccc(OCCO)cc1 [Compound 15]
14 | 7600 nM | > 10000 nM | COCCOc1ccc(-c2c(C#N)c(N)nc(SCc3ccc4c(c3)OCC4)c2C#N)cc1 [Compound 16]
15 | 99.1 nM | 5950 nM | CCOCCSc1nc(N)c(C#N)c(-c2ccc(OC3COC3)cc2)c1C#N [Compound 17]
16 | 69.5 nM | 299 nM | N#Cc1cnc(SCc2cccnc2)c(C#N)c1-c1ccc(OC2COC2)cc1 [Compound 18]
17 | 14.1 nM | 3 nM | N#Cc1c(SCc2cccnn2)nc(N2CCC2)c(C#N)c1-c1ccc(OCCO)cc1 [Compound 20]
18 | 3520 nM | > 10000 nM | COCCOc1ccc(-c2c(C#N)c(SCc3cnccn3)nc(N3CCC3)c2C#N)cc1 [Compound 21]
19 | 3.5 nM | > 10000 nM | N#Cc1c(N)nc(SCc2cccc3[nH]ccc23)c(C#N)c1-c1ccc(OC2COC2)cc1 [Compound 22, 2-Amino-6-(1H-indol-4-ylmethylsulfanyl)-4-[4-(oxetan-3-yloxy)phenyl]pyridine-3,5-dicarbonitrile]
20 | 100 nM | 420 nM | N#Cc1c(SCc2cncnc2)nc(N2CCC2)c(C#N)c1-c1ccc(OCCO)cc1 [Compound 23]
21 | 9.8 nM | > 10000 nM | N#Cc1c(N)nc(SCC2CCOC2)c(C#N)c1-c1ccc(OC2COC2)cc1 (stereo not shown) [Compound 24]
22 | 1.1 nM | > 10000 nM | N#Cc1c(N)nc(SCC2COC2)c(C#N)c1-c1ccc(OC2COC2)cc1 [Compound 25]
23 | 31.4 nM | 65.9 nM | CCOCCSc1nc(N)c(C#N)c(-c2ccc(OCCO)cc2)c1C#N [Compound 27]
24 | 52.4 nM | > 10000 nM | N#Cc1c(N)nc(SCC2CCOC2)c(C#N)c1-c1ccc(OCCO)cc1 (stereo not shown) [Compound 28]

Row | EC50 [1] | EC50 (human A2B) | Structure (SMILES)
25 | 79 nM | 6120 nM | N#Cc1c(N)nc(SCc2cccc(OC(F)(F)F)c2)c(C#N)c1-c1ccc(OC2COC2)cc1 [Compound 29]
26 | 3090 nM | > 10000 nM | COCCOc1ccc(-c2c(C#N)c(SCc3cncnc3)nc(N3CCC3)c2C#N)cc1 [Compound 30]
27 | 596 nM | > 10000 nM | N#Cc1c(N)nc(SC2CCOCC2)c(C#N)c1-c1ccc(OC2COC2)cc1 [Compound 31]
28 | 890 nM | > 10000 nM | N#Cc1c(N)nc(SC2CCOCC2)c(C#N)c1-c1ccc(OCCO)cc1 [Compound 32]
29 | 7.9 nM | 563 nM | COc1cccc(CSc2nc(N)c(C#N)c(-c3ccc(OC4COC4)cc3)c2C#N)c1 [Compound 33]
30 | 245 nM | > 10000 nM | CCOCCSc1nc(N)c(C#N)c(-c2ccc(OCCOC)cc2)c1C#N [Compound 34]
31 | 238 nM | > 10000 nM | COCCOc1ccc(-c2c(C#N)c(N)nc(SCc3cccc(OC(F)(F)F)c3)c2C#N)cc1 [Compound 35]
32 | 124 nM | > 10000 nM | COCCOc1ccc(-c2c(C#N)c(N)nc(SCC3CCOC3)c2C#N)cc1 (stereo not shown) [Compound 36]
33 | 139 nM | > 10000 nM | COCCOc1ccc(-c2c(C#N)c(N)nc(SCc3cccc(OC)c3)c2C#N)cc1 [Compound 37]
34 | 862 nM | > 10000 nM | COCCOc1ccc(-c2c(C#N)c(C)nc(N)c2C#N)cc1 [Compound 39, 2-Amino-4-[4-(2-methoxyethoxy)phenyl]-6-methyl-pyridine-3,5-dicarbonitrile]
35 | 21.6 nM | > 10000 nM | N#Cc1c(N)nc(SCc2cccnc2)c(C#N)c1-c1ccc(OCCOC(F)F)cc1 [Compound 40]
36 | 34.3 nM | > 10000 nM | COCCOc1ccc(-c2c(C#N)c(N)nc(SCc3ccc4cc[nH]c4c3)c2C#N)cc1 [Compound 44]
37 | 34.3 nM | 8.2 nM | N#Cc1c(SCc2cccnc2)nc(C2CC2)c(C#N)c1-c1ccc(OCCO)cc1 [Compound 45, 2-Cyclopropyl-4-[4-(2-hydroxyethoxy)phenyl]-6-(3-pyridylmethylsulfanyl)-pyridine-3,5-dicarbonitrile]
38 | 110 nM | > 10000 nM | COCCOc1ccc(-c2c(C#N)c(SCc3cccnc3)nc(C3CC3)c2C#N)cc1 [Compound 46]
39 | > 10000 nM | 36.1 nM | COCCOc1ccc(-c2c(C#N)c(C)nc(SCCC(F)(F)F)c2C#N)cc1 [Compound 47]
40 | > 10000 nM | 42.6 nM | Cc1nc(SCCC(F)(F)F)c(C#N)c(-c2ccc(OCCO)cc2)c1C#N [Compound 48]
41 | 311 nM | 65 nM | CC(C)(O)COc1ccc(-c2c(C#N)c(SCc3cccnc3)nc(N3CCC3)c2C#N)cc1 [Compound 49]
42 | 294 nM | 94.2 nM | CC(C)(O)COc1ccc(-c2c(C#N)c(SCc3cccnc3)nc(N3CCCC3)c2C#N)cc1 [Compound 50]
43 | 38 nM | 5.1 nM | CC(C)(O)COc1ccc(-c2c(C#N)c(N)nc(SCc3cccnc3)c2C#N)cc1 [Compound 51]
44 | 94.2 nM | 5.3 nM | CC(O)COc1ccc(-c2c(C#N)c(SCc3cccnc3)nc(N3CCCC3)c2C#N)cc1 (stereo not shown) [Compound 52]
45 | 7.2 nM | 0.7 nM | CC(O)COc1ccc(-c2c(C#N)c(SCc3cccnc3)nc(N3CCC3)c2C#N)cc1 (stereo not shown) [Compound 53, 2-(azetidin-1-yl)-4-[4-(2-hydroxypropoxy)phenyl]-6-(3-pyridylmethylsulfanyl)-pyridine-3,5-dicarbonitrile]
46 | 8.6 nM | 0.08 nM | CC(O)COc1ccc(-c2c(C#N)c(N)nc(SCc3cccnc3)c2C#N)cc1 (stereo not shown) [Compound 56, 2-Amino-4-[4-(2-hydroxy-propoxy)phenyl]-6-(3-pyridylmethylsulfanyl)pyridine-3,5-dicarbonitrile]
47 | 620 nM | > 10000 nM | N#Cc1cnc(SCC2COC2)c(C#N)c1-c1ccc(OCCO)cc1 [Compound 61, 4-[4-(2-hydroxyethoxy)phenyl]-2-(oxetan-3-ylmethythio)pyridine-3,5-dicarbonitrile]
